Reference: the kinase profiling compilation of Christmann-Franck et al. (2016)

Assays:
Assay in all cases: radiometric filter-binding kinase assay
MAPK13 (human) = MAPK13 (human) (UniProt O15264)
CHEK1 (human) = CHEK1 (human) (UniProt O14757)
PRKCZ (human) = PRKCZ (human) (UniProt Q05513)
AURKA (human) = AURKA (human) (UniProt O14965)
GSK3B (human) = GSK3B (human) (UniProt P49841)
MAP2K2 (human) = MAP2K2 (human) (UniProt P36507)
PKN2 (human) = PKN2 (human) (UniProt Q16513)
MYLK (human) = MYLK (human) (UniProt Q15746)
Chain of MYLK (human) (Q15746 whole entry, looked up): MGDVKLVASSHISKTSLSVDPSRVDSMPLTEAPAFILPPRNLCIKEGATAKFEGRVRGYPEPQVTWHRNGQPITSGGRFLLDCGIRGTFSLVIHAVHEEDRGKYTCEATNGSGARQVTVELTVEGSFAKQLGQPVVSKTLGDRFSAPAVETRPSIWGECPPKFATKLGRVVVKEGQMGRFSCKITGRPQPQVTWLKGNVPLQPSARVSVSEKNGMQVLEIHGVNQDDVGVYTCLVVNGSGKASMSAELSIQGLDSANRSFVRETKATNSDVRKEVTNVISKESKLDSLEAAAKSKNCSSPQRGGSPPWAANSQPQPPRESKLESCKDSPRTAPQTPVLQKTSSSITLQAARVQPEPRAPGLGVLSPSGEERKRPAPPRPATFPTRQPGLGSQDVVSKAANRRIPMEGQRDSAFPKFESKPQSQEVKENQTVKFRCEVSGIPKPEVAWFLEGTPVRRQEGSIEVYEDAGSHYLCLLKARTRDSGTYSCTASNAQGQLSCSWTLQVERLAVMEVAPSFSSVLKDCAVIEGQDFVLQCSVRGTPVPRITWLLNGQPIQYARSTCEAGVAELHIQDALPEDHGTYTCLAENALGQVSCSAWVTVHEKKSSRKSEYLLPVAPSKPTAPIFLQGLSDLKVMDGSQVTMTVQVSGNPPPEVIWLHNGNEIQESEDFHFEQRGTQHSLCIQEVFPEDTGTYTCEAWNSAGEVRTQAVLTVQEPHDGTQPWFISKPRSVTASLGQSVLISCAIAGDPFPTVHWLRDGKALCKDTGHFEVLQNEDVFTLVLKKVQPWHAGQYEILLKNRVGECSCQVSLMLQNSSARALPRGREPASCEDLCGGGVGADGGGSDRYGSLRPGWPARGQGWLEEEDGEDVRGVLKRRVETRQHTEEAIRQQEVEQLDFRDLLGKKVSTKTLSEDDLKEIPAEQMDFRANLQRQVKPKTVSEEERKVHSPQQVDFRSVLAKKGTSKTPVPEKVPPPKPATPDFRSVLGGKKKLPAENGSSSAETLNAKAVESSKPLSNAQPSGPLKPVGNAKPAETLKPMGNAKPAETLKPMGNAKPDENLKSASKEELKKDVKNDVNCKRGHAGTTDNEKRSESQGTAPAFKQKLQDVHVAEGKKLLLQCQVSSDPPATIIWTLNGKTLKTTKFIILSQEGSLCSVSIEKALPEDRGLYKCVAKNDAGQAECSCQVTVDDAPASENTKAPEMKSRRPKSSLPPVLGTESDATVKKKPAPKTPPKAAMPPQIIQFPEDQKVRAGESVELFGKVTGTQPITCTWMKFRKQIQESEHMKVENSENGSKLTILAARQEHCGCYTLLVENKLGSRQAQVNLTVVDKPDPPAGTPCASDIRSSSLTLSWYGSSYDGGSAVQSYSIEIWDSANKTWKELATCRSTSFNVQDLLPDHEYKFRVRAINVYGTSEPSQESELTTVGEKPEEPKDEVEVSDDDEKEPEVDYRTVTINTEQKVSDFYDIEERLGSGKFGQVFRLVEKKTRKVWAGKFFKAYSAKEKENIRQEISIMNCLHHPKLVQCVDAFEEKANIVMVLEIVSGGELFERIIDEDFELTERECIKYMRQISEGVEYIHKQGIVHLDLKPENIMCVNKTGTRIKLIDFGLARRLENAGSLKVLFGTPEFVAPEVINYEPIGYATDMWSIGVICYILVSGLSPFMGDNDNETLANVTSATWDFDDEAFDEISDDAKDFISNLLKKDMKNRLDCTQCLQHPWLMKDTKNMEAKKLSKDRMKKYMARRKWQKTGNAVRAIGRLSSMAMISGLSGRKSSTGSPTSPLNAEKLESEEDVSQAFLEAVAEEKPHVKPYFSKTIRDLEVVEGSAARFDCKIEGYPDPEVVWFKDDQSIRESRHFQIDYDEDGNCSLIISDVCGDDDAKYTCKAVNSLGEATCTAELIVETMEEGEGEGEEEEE

MELK (human) = MELK (human) (UniProt Q14680)
TAOK1 (human) = TAOK1 (human) (UniProt Q7L7X3)
MAP3K9 (human) = MAP3K9 (human) (UniProt P80192)
SRC (human) = SRC (human) (UniProt P12931)
EEF2K (human) = EEF2K (human) (UniProt O00418)
EPHB1 (human) = EPHB1 (human) (UniProt P54762)
MAP3K5 (human) = MAP3K5 (human) (UniProt Q99683)
MAPK1 (human) = MAPK1 (human) (UniProt P28482)
AURKB (human) = AURKB (human) (UniProt Q96GD4)
Chain of AURKB (human) (Q96GD4 whole entry, looked up): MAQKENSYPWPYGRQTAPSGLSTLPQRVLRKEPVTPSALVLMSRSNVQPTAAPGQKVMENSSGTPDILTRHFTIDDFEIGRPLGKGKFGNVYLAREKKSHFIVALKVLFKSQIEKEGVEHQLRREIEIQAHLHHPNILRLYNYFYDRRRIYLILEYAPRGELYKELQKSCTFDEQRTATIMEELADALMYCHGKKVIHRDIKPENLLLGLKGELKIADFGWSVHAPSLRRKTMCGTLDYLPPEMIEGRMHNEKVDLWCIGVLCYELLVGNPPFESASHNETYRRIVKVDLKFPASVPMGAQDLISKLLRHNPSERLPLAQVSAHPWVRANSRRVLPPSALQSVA

IGF1R (human) = IGF1R (human) (UniProt P08069)
FLT1 (human) = FLT1 (human) (UniProt P17948)
HIPK1 (human) = HIPK1 (human) (UniProt Q86Z02)
Chain of HIPK1 (human) (Q86Z02 whole entry, looked up): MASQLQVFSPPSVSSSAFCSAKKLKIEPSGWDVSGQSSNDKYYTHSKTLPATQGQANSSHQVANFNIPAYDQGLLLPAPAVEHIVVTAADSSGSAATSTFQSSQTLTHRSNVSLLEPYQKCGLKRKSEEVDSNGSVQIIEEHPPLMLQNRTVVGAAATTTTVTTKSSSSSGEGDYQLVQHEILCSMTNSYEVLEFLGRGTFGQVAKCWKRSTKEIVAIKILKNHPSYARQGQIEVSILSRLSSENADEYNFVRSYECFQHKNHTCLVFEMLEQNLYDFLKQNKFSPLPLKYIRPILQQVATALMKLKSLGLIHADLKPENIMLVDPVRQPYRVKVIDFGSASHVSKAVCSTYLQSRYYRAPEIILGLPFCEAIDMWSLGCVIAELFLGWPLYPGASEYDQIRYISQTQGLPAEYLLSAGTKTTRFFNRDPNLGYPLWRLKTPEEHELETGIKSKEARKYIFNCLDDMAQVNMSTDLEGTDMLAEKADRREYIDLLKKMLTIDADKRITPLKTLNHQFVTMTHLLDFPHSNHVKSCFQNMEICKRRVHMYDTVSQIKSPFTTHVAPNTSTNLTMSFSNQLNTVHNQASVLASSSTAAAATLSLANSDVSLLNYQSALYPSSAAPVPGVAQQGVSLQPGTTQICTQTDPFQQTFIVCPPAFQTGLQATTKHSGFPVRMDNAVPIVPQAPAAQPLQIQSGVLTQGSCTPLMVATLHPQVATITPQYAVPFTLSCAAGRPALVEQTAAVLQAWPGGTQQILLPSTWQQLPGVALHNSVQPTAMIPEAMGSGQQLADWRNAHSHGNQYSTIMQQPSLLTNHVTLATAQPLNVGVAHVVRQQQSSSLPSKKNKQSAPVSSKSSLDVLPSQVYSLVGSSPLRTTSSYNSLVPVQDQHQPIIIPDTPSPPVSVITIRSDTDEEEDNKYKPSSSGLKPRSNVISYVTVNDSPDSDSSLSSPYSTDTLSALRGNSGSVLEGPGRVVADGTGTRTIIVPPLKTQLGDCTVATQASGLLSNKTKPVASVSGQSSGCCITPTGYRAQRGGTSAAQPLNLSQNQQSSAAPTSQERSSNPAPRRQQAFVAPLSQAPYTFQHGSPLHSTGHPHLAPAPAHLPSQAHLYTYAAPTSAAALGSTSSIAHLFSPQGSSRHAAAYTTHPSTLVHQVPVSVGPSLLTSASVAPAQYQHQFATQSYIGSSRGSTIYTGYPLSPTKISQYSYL

GCK (human) = GCK (human) (UniProt Q12851)
PAK6 (human) = PAK6 (human) (UniProt Q9NQU5)
[1] = system: PAK2 (human), Q13177 [T402E]
CSNK1D (human) = CSNK1D (human) (UniProt P48730)
HIPK2 (human) = HIPK2 (human) (UniProt Q9H2X6)
MAPK10 (human) = MAPK10 (human) (UniProt P53779)
TTK (human) = TTK (human) (UniProt P33981)
[2] = system: AKT2 (human), P31751 [S474D]
Chain of AKT2 (human), P31751 [S474D] (P31751 whole entry S474D, looked up): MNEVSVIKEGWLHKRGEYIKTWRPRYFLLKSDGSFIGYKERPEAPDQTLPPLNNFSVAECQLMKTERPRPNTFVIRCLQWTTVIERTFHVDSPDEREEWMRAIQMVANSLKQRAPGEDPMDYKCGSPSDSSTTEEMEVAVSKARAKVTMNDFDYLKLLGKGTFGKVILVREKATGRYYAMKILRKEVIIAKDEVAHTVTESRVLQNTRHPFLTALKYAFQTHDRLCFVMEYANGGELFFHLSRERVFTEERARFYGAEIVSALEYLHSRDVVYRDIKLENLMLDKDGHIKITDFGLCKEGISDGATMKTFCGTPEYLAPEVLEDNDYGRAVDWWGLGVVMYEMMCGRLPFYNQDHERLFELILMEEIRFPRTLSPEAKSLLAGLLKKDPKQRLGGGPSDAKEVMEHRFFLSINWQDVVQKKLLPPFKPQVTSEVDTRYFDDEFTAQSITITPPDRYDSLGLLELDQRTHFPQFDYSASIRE

MAPK9 (human) = MAPK9 (human) (UniProt P45984)
FGFR1 (human) = FGFR1 (human) (UniProt P11362)
Chain of FGFR1 (human) (P11362 whole entry, looked up): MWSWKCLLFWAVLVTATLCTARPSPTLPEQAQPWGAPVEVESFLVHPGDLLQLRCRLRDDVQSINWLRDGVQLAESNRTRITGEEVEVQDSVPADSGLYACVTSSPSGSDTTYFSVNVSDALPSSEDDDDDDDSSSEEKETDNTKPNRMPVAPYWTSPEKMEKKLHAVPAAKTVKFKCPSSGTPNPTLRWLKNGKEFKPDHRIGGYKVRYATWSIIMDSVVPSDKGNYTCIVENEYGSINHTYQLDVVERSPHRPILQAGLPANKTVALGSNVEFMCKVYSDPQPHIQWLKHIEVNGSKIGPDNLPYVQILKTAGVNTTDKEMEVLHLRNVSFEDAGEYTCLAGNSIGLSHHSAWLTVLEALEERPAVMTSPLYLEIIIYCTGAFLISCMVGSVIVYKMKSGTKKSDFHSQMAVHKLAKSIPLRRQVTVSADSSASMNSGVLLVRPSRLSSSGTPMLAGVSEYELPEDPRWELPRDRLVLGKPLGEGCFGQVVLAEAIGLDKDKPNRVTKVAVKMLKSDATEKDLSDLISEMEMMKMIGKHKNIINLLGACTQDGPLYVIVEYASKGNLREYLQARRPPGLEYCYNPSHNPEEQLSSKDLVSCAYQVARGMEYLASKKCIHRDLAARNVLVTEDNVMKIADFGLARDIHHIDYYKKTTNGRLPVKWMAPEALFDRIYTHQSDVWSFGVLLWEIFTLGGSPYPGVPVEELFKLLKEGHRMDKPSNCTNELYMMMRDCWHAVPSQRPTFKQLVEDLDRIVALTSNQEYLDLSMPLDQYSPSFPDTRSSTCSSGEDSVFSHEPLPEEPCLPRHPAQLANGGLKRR

SYK (human) = SYK (human) (UniProt P43405)
MAP3K1 (human) = MAP3K1 (human) (UniProt Q13233)
YES1 (human) = YES1 (human) (UniProt P07947)
[3] = molecular target: STK11 CAB39 STRADA (human) (UniProt Q9Y376+Q7RTN6+Q15831)
EPHB4 (human) = EPHB4 (human) (UniProt P54760)
MARK4 (human) = MARK4 (human) (UniProt Q96L34)

A residual activity (MAPK13 (human); compound 1.0 µM) of 85%, a residual activity (MAPK13 (human); compound 10.0 µM) of 68% and a residual activity (CHEK1 (human); compound 1.0 µM) of 95% were found for `N#Cc1c(C2CCNCC2)cc(-c2c(O)cccc2OCC2CC2)nc1N` in this work. For the same compound, the residual activity (CHEK1 (human); compound 10.0 µM) was 92%, the residual activity (PRKCZ (human); compound 1.0 µM) was 88% and the residual activity (PRKCZ (human); compound 10.0 µM) was 76%. The residual activity (AURKA (human); compound 1.0 µM) was 111%, the residual activity (AURKA (human); compound 10.0 µM) was 91% and the residual activity (GSK3B (human); compound 1.0 µM) was 80%. The residual activity (GSK3B (human); compound 10.0 µM) was 73%, the residual activity (MAP2K2 (human); compound 1.0 µM) was 107% and the residual activity (MAP2K2 (human); compound 10.0 µM) was 77%. For the same compound, the residual activity (PKN2 (human); compound 1.0 µM) was 94%, the residual activity (PKN2 (human); compound 10.0 µM) was 53% and the residual activity (MYLK (human); compound 1.0 µM) was 70%. It also gave a residual activity (MYLK (human); compound 10.0 µM) of 25%, a residual activity (MELK (human); compound 1.0 µM) of 88% and a residual activity (MELK (human); compound 10.0 µM) of 29%. The residual activity (TAOK1 (human); compound 1.0 µM) was 77%, the residual activity (TAOK1 (human); compound 10.0 µM) was 57% and the residual activity (MAP3K9 (human); compound 1.0 µM) was 73%. It also gave a residual activity (MAP3K9 (human); compound 10.0 µM) of 66%, a residual activity (SRC (human); compound 1.0 µM) of 89% and a residual activity (SRC (human); compound 10.0 µM) of 68%. For the same compound, the residual activity (EEF2K (human); compound 1.0 µM) was 90%, the residual activity (EEF2K (human); compound 10.0 µM) was 56% and the residual activity (EPHB1 (human); compound 1.0 µM) was 96%. It also gave a residual activity (EPHB1 (human); compound 10.0 µM) of 100%, a residual activity (MAP3K5 (human); compound 1.0 µM) of 102% and a residual activity (MAP3K5 (human); compound 10.0 µM) of 83%. For the same compound, the residual activity (MAPK1 (human); compound 1.0 µM) was 101%, the residual activity (MAPK1 (human); compound 10.0 µM) was 76% and the residual activity (AURKB (human); compound 1.0 µM) was 67%. The residual activity (AURKB (human); compound 10.0 µM) was 42%, the residual activity (IGF1R (human); compound 1.0 µM) was 86% and the residual activity (IGF1R (human); compound 10.0 µM) was 35%. The residual activity (FLT1 (human); compound 1.0 µM) was 101%, the residual activity (FLT1 (human); compound 10.0 µM) was 53% and the residual activity (HIPK1 (human); compound 1.0 µM) was 113%. It also gave a residual activity (HIPK1 (human); compound 10.0 µM) of 62%, a residual activity (GCK (human); compound 1.0 µM) of 77% and a residual activity (GCK (human); compound 10.0 µM) of 41%. For the same compound, the residual activity (PAK6 (human); compound 1.0 µM) was 89%, the residual activity (PAK6 (human); compound 10.0 µM) was 83% and the residual activity ([1]; compound 1.0 µM) was 83%. The residual activity ([1]; compound 10.0 µM) was 78%, the residual activity (CSNK1D (human); compound 1.0 µM) was 86% and the residual activity (CSNK1D (human); compound 10.0 µM) was 78%. For the same compound, the residual activity (HIPK2 (human); compound 1.0 µM) was 80%, the residual activity (HIPK2 (human); compound 10.0 µM) was 59% and the residual activity (MAPK10 (human); compound 1.0 µM) was 73%. It also gave a residual activity (MAPK10 (human); compound 10.0 µM) of 68%, a residual activity (TTK (human); compound 1.0 µM) of 89% and a residual activity (TTK (human); compound 10.0 µM) of 66%. For the same compound, the residual activity ([2]; compound 1.0 µM) was 85%, the residual activity ([2]; compound 10.0 µM) was 62% and the residual activity (MAPK9 (human); compound 1.0 µM) was 83%. For the same compound, the residual activity (MAPK9 (human); compound 10.0 µM) was 71%, the residual activity (FGFR1 (human); compound 1.0 µM) was 97% and the residual activity (FGFR1 (human); compound 10.0 µM) was 72%. The residual activity (SYK (human); compound 1.0 µM) was 88%, the residual activity (SYK (human); compound 10.0 µM) was 81% and the residual activity (MAP3K1 (human); compound 1.0 µM) was 62%. The residual activity (MAP3K1 (human); compound 10.0 µM) was 50%, the residual activity (YES1 (human); compound 1.0 µM) was 79% and the residual activity (YES1 (human); compound 10.0 µM) was 38%. The residual activity ([3]; compound 1.0 µM) was 78%, the residual activity ([3]; compound 10.0 µM) was 65% and the residual activity (EPHB4 (human); compound 1.0 µM) was 90%. For the same compound, the residual activity (EPHB4 (human); compound 10.0 µM) was 86%, the residual activity (MARK4 (human); compound 1.0 µM) was 115% and the residual activity (MARK4 (human); compound 10.0 µM) was 102%.
